Patent US20240385174A1, “METHOD FOR SCREENING SUBSTANCE THAT SUPPRESSES 4-METHYLACETOPHENONE ODOR, AND METHOD FOR SUPPRESSING 4-METHYL ACETOPHENONE ODOR” (AJINOMOTO CO., INC., priority 2022, published 2024)

Experiments:
OR5P3 = target: T1, OR5P3 (Homo sapiens, UniProt Q8WZ94); assay: Screening for OR5P3 antagonist (luciferase assay, 2-heptanone as receptor-activating substance); type: cell-based; details: inhibition of OR5P3 response to 2-heptanone (1000 μM); test substance 0.3-100 μM; HEK293T cells expressing OR5P3
T1 construct: host or cells: HEK293T
T1 sequence (Q8WZ94 with tags, fused parts or gaps): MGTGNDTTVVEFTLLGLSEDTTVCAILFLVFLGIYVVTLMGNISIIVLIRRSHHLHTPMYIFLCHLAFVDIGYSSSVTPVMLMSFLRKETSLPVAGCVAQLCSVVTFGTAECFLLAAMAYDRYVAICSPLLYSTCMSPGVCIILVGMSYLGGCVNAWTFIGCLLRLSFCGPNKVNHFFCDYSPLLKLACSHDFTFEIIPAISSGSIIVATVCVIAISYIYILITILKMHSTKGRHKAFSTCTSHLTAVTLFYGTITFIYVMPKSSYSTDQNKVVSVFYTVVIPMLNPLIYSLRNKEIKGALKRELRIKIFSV
Method: The expression vector mixture was allowed to stand for 20 minutes in a laminar flow cabinet and then added to HEK293T cells inoculated in 10-cm petri dishes the day before (2.5 to 3.5×10^6 cells/10-cm petri dish). After incubation for 5 hours in an incubator maintained at 37° C. and 5% CO2, the HEK293T cells were inoculated into each well of a 96-well plate (BD) in a volume of 100 μl (2.5×10^6 cells/ml), and cultured overnight in an incubator maintained at 37° C. and 5% CO2. […] As a control, the same procedure was performed by using the empty vector Rho-pME18S instead of the expression vector for human olfactory receptor in the expression vector mixture to obtain culture of the HEK293T cells transfected with the empty vector Rho-pME18S (hereinafter also referred to as the “control cells”).
The medium was removed from the culture of HEK293T cells expressing OR5P3 obtained in the section <1-2> mentioned above, and 60 μl of a mixed solution of a test substance and 2-heptanone (containing 100 μM test substance and 1000 μM 2-heptanone) or 60 μl of a 2-heptanone solution (containing 1000 μM 2-heptanone) was added to obtain a reaction solution. The solutions were prepared by dissolving the substances in CD293 (Life Technologies, Inc.). The cells were incubated in a CO2 incubator at 37° C. for 3 hours so that the firefly luciferase gene was sufficiently expressed in the cells. The value of luminescence derived from firefly luciferase in the cells was measured and designated as “Luc value”. The value of luminescence derived from firefly luciferase was measured by using Dual-Go™ Luciferase Assay System (Promega) according to the operation manual of the product.
Receptor response inhibition ratio of the test substance was calculated as follows. The Luc value (Y) in the cells not stimulated with 2-heptanone was subtracted from the Luc value (X) in the cells stimulated with 2-heptanone alone. Similarly, the Luc value (Y) in the cells not stimulated with 2-heptanone was subtracted from the Luc value (Z) in the cells stimulated with a mixture of 2-heptanone and the test substance. The receptor response inhibition ratio of the test substance was calculated in accordance with the following equation using the increase in value of luminescence caused by stimulation with 2-heptanone alone (X Y) as the standard. The experiment was performed in duplicate, and an average value was obtained.
The concentration of the test substance was 0.3, 1, 3, 10, 30, or 100 μM. The response of the receptor to 2-heptanone (1000 μM) in the presence of each concentration of the test substance was measured and represented as the relative response intensity based on the response intensity of the receptor to 2-heptanone (1000 μM) observed in the absence of the test substance, which was taken as 100%.

olfactory receptor OR5P3 = target: T2, olfactory receptor OR5P3 (Homo sapiens, UniProt Q8WZ94); assay: Luciferase reporter gene assay: response of human olfactory receptors to 4-methylacetophenone; type: cell-based
T2 construct: host or cells: HEK293T
T2 sequence (Q8WZ94 with tags, fused parts or gaps): T1 sequence (Q8WZ94 with tags, fused parts or gaps)
From the text: The genes for the 352 types of human olfactory receptors were purchased from TrueClone cDNA Clone Collection (OriGene). Fragments for subcloning of the 352 types of human olfactory receptor genes were amplified by PCR using primers designed on the basis of sequence information available in GenBank and the purchased human olfactory receptor genes as the templates. Each of the amplified fragments for subcloning of the genes was subcloned into the Rho-pME18S vector (K. Kajiya et al., Journal of Neuroscience. 15 Aug. 2001, 21 (16) 6018-6025) downstream of the Rho tag sequence using the EcoRI and XhoI sites to obtain 352 types of expression vectors for human olfactory receptors.
HEK293T cells expressing each of the 352 types of olfactory receptors were prepared by the following procedure. […]
The olfactory receptors expressed by HEK293T cells conjugate with Golf to activate adenylate cyclase, and thereby increase the amount of intracellular cAMP. In this example, the olfactory receptor response was measured by using a luciferase reporter gene assay, in which the increase in intracellular cAMP amount is monitored as an increase in firefly luciferase-derived luminescence. […] In addition, value of the luminescence derived from Renilla luciferase was used as an internal standard to correct errors caused by differences in gene transfer efficiency and cell number in each well. […]

[1] = Test Example 3: sensory evaluation of citral-derived degradation odor-masking effect; type: in vivo; details: score 0 to 10 (0 normal sample, 5 normal:degraded 1:1, 10 degraded sample); 100 ppm citral aqueous solution stored at 44° C. for two weeks; added ppm: decadienal 0.002, nonadienal 0.002, 2-methylbenzenethiol 0.165, S-(2-methyl-3-furyl) ethanethioate 0.120, piperine 6.667, nootkatone 10.000, sclareol 16.667; average of two experts
Method: A 100 ppm citral aqueous solution (stored under refrigeration after preparation) was used as a normal sample. This solution was stored at 44° C. for two weeks to generate a degraded odor derived from citral, and was used as a degraded sample. Evaluation samples were prepared by adding each of the compounds shown in Table 5 to the degraded sample at the concentrations shown in the same.
The citral-derived degradation odor intensity was scored as 0 to 10 on the basis of the following evaluation criteria. […] On the basis of the citral-derived degradation odor intensity, the citral-derived degradation odor-masking effect was evaluated.
• 0: Citral-derived degradation odor intensity of the normal sample • 5: Citral-derived degradation odor intensity of a mixture of the normal sample and degraded sample (normal sample:degraded sample=1:1) • 10: Citral-derived degradation odor intensity of the degraded sample

[2] = Test Example 4: sensory evaluation of lemon-derived degradation odor-masking effect (single compounds); type: in vivo; details: score 0 to 10 (0 normal sample, 5 normal:degraded 1:1, 10 degraded sample); lemon beverage stored at 44° C. for 2 weeks; added ppm: decadienal 0.002, nonadienal 0.002, 2-methylbenzenethiol 0.165, S-(2-methyl-3-furyl) ethanethioate 0.120, piperine 6.667, nootkatone 10.000, sclareol 16.667; average of 2 experts
Method: A commercially available lemon beverage (Chelate Lemon W Lemon (Pokka Sapporo), stored under refrigeration after purchased) was used as a normal sample. This lemon beverage was stored at 44° C. for 2 weeks to generate a lemon-derived degradation odor and was used as a degraded sample. Evaluation samples were prepared by adding each of the compounds shown in Table 6 to the degraded sample at the concentrations shown in the same.
The lemon-derived degradation odor intensity was scored as 0 to 10 on the basis of the following evaluation criteria. […] On the basis of the lemon-derived degradation odor intensity, the lemon-derived degradation odor-masking effect was evaluated.
• 0: Lemon-derived degradation odor intensity of the normal sample • 5: Lemon-derived degradation odor intensity of a mixture of the normal sample and degraded sample (normal sample:degraded sample=1:1) • 10: Lemon-derived degradation odor intensity of the degraded sample

SCCc1ccccc1 [2-Phenylethanethiol]
IC50 (OR5P3): 17 µM

Sc1cccs1 [2-Thiophenethiol]
IC50 (OR5P3): 76 µM

CCC=CC=CC=O [2,4-Heptadienal]
IC50 (OR5P3): 78 µM

CC(=O)c1ccc(C)cc1 [4-methylacetophenone]
response of olfactory receptor OR5P3 to 4-methylacetophenone (olfactory receptor activity) (olfactory receptor OR5P3; 300 μM and 30 μM 4-methylacetophenone, 352 types of human olfactory receptors expressed in HEK293T cells, FIGS. 1 and 2): OR5P3 showed a response
4-methylacetophenone concentration dependency of the response of OR5P3 (fold increase) (olfactory receptor OR5P3; HEK293T cells expressing OR5P3, n=3, FIG. 3): concentration-dependent manner

SCc1cccs1 [2-Thiophenemethanethiol]
IC50 (OR5P3): 39 µM

CCCC/C=C/C=C/C=O [trans, trans-2,4-Nonadienal]
Evaluation score (citral-derived degradation odor intensity) [1]: 7
Evaluation score (lemon-derived degradation odor intensity) [2]: 7.5

Cc1ccccc1S [2-Methylbenzenethiol]
IC50 (OR5P3): 46 µM
Evaluation score (citral-derived degradation odor intensity) [1]: 8
Evaluation score (lemon-derived degradation odor intensity) [2]: 8

c1coc(CSCc2ccco2)c1 [Difurfuryl sulfide]
IC50 (OR5P3): 39 µM

CC(C)CC(O)Cc1ccccc1 (centres unmarked)
IC50 (OR5P3): 67 µM

CC=Cc1ccc(OCc2ccccc2)c(OC)c1 [Benzyl isoeugenol]
IC50 (OR5P3): 49 µM

CC=C(C=O)c1ccccc1 [2-Phenyl-2-butenal]
IC50 (OR5P3): 65 µM

O=C(/C=C/C=C/c1ccc2c(c1)OCO2)N1CCCCC1 [Piperine]
Evaluation score (citral-derived degradation odor intensity) [1]: 6
Evaluation score (lemon-derived degradation odor intensity) [2]: 8

C=C[C@](C)(O)CC[C@@H]1[C@@]2(C)CCCC(C)(C)[C@@H]2CC[C@@]1(C)O [Sclareol]
Evaluation score (citral-derived degradation odor intensity) [1]: 5.5
Evaluation score (lemon-derived degradation odor intensity) [2]: 6

CCCCC/C=C/C=C/C=O [trans, trans-2,4-Decadienal]
Evaluation score (citral-derived degradation odor intensity) [1]: 5
Evaluation score (lemon-derived degradation odor intensity) [2]: 6

S=C=NCc1ccccc1 [Benzyl isothiocyanate]
IC50 (OR5P3): 19 µM

C=C(C)[C@@H]1CCC2=CC(=O)C[C@@H](C)[C@]2(C)C1 [Nootkatone]
IC50 (OR5P3): 8.1 µM
Evaluation score (citral-derived degradation odor intensity) [1]: 5.5
Evaluation score (lemon-derived degradation odor intensity) [2]: 6

CC(=O)Sc1ccoc1C [S-(2-Methyl-3-furyl) ethanethioate]
IC50 (OR5P3): 45 µM
Evaluation score (citral-derived degradation odor intensity) [1]: 6
Evaluation score (lemon-derived degradation odor intensity) [2]: 6

CCCCCCCCC(=O)NCc1ccc(O)c(OC)c1 [N-Vanillylnonanamide]
IC50 (OR5P3): 2 µM
